{
  "source": "paper PMC10810651",
  "about": "“Discovery of novel and potent CDK8 inhibitors for the treatment of acute myeloid leukaemia” (Journal of Enzyme Inhibition and Medicinal Chemistry, 2024)",
  "key": {"MV4-11": {"system": "MV4-11", "experiment": "Antiproliferative CCK-8 assay, MV4-11", "assay_type": "cell-based", "conditions": "Homo sapiens; MV4-11, CCK-8 assay, means ± SD; read-out: GC50 (the source's name)", "from_the_text": "(§1) Compounds12, 13 and 30 were selected for further cell activity assessments based on the enzymatic activity assessment results. molm-13 and MV4-11(acute myeloid lineage leukaemia cells), MGC-803 (gastric cancer cell), MDA-MB-231(breast cancer cell), A375 (melanoma cell), A549 (lung cancer cell), HCT-116, SW-480 and HT-29 (colorectal cancer cells) were selected to evaluate antitumor activity in vitro, GES-1 (gastric mucosal epithelial cell) was selected to evaluate toxicity in vitro.\n(§2) CO2 atmosphere incubator for 24 h. Then, medium with compound at the concentrations of 100, 20, 4, 0.8, 0.016 μM was added into each well for another 48 h and incubated with CCK-8 (10 μL) for 2 h at 37 °C. The absorbance value at 450 nm was measured by the microplate reader (PerkinElmer Envision). […]"}, "MDA-MB-231": {"system": "MDA-MB-231", "experiment": "Antiproliferative CCK-8 assay, MDA-MB-231", "assay_type": "cell-based", "conditions": "Homo sapiens; MDA-MB-231, CCK-8 assay, means ± SD; read-out: GC50 (the source's name)", "from_the_text": "as §1, §2"}, "HCT-116": {"system": "HCT-116", "experiment": "Antiproliferative CCK-8 assay, HCT-116", "assay_type": "cell-based", "conditions": "Homo sapiens; HCT-116, CCK-8 assay, means ± SD; read-out: GC50 (the source's name)", "from_the_text": "as §1, §2"}, "HT-29": {"system": "HT-29", "experiment": "Antiproliferative CCK-8 assay, HT-29", "assay_type": "cell-based", "conditions": "Homo sapiens; HT-29, CCK-8 assay, means ± SD; read-out: GC50 (the source's name)", "from_the_text": "as §1, §2"}, "CDK6": {"target": "CDK6 (Homo sapiens, UniProt Q00534)", "sequence (Q00534 whole entry)": "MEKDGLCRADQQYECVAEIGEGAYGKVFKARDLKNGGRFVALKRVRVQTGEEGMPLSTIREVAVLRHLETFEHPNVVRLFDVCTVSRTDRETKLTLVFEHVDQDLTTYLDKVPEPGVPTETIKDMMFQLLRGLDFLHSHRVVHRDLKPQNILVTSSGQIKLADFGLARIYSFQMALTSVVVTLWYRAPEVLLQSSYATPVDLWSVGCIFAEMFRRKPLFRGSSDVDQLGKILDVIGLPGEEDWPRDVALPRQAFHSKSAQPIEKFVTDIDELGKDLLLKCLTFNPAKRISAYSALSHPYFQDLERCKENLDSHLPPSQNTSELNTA", "experiment": "CDKs selectivity, CDK6", "assay_type": "biochemical", "from_the_text": "CDK7 and CDK9 with the same transcription function and CDK2 and CDK6 were selected to evaluate the selectivity of compound 12."}, "STAT1 Tyr701": {"system": "STAT1 Tyr701", "experiment": "Phosphorylation of STAT1 Tyr701, western blot", "assay_type": "cell-based", "conditions": "HCT-116 cells, 1, 2, 4 μM, 12 h", "protocol": "It has been reported that CDK8 could specifically target the transactivation domain of STAT1 at Ser727 phosphorylation. HCT-116 cells were treated with compounds 12 with different concentrations of 1 μM, 2 μM, 4 μM separately to verify compound 12 could inhibit the phosphorylation of STAT1 Ser727. […] It’s reported that CDK8 was also involved in S726 phosphorylation of STAT5 in AML cells.\n1.7 The effect of compound on phosphorylation of STAT1 S727\nHCT-116 cells were seeded into 60 mm cultural dishes at a density of 1.5×10^6 cells per dishes. After incubated for 12 h, cells were treated with DMSO or 10ng/mL IFN-γ.1 hour later, cells were treated with or without different concentrations of compound for 12 h. Cells were lysed using RIPA containing PMSF and phosphatase inhibitor cocktail A. Then cell samples were treated by western blot. Levels of total STAT1, phosphorylated STAT1 S727, Y701 and GAPDH were analyzed.\n1.8 The effect of compound on phosphorylation of STAT5 S726\nHL-60 cells were seeded into 60 mm cultural dishes at a density of 2×10^6 cells per dishes. […]\nLevels of total STAT5, phosphorylated STAT5 S726 and GAPDH were analyzed.\nThe results were expressed as the means ± SEMs (SPSS software), and the differences between groups were evaluated using Turkey’s method (GraphPad Software). […]"}, "CYP 2D6": {"target": "CYP 2D6 (Homo sapiens, UniProt P10635)", "sequence (P10635 whole entry)": "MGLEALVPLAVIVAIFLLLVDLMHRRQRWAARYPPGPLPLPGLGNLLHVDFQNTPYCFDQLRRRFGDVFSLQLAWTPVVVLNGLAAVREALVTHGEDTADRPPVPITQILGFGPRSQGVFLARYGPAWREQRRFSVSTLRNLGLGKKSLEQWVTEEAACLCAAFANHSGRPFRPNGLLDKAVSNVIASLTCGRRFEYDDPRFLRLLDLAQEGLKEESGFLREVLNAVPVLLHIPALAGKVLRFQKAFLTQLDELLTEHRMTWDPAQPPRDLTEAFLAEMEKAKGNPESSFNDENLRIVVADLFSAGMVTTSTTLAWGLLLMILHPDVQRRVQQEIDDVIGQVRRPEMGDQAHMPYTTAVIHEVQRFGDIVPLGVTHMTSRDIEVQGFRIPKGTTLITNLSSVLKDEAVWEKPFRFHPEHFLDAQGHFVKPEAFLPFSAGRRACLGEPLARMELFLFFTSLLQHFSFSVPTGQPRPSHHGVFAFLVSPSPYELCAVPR", "experiment": "CYP inhibition activity, 2D6", "assay_type": "in vitro ADME", "from_the_text": "Table 7. CYP inhibition activity. | column: IC50 (μM) / 2D6"}, "CDK8": {"target": "CDK8 (Homo sapiens, UniProt P49336)", "sequence (P49336 whole entry)": "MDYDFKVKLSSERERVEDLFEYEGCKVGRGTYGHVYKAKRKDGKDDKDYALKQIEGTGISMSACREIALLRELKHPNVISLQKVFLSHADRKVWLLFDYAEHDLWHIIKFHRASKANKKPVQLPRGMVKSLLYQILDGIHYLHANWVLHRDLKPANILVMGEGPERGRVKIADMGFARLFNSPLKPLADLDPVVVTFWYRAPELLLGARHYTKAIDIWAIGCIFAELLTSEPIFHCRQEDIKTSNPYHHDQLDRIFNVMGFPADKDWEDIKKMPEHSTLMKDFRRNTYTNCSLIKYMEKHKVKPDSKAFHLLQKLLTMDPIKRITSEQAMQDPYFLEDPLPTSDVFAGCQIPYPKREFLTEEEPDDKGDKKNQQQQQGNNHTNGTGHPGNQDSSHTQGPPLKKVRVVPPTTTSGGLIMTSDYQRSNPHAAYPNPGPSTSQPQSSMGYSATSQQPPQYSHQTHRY", "experiment": "Biotin-pulldown assay", "assay_type": "binding", "set-up": "endogenous in cells; host or cells: HCT-116", "conditions": "HCT-116 or CDK8-transfected HEK293T cells; 2 μM biotinylated compound; 1, 2, 4 μM", "protocol": "In previous study, a biotinylated compound with favourable CDK8 inhibition activity was designed and synthesized. Here, the pulldown assay was performed to determine compound 12 could bind CDK8. HCT-116 cells or HEK293T cells transfected with CDK8 plasmid labelled were treated with 2 μM biotinylated compound and compounds 12 with different concentrations of 1 μM, 2 μM, 4 μM separately.\nCO2 atmosphere incubator for 24 h. Then, medium with compound at the concentrations of 100, 20, 4, 0.8, 0.016 μM was added into each well for another 48 h and incubated with CCK-8 (10 μL) for 2 h at 37 °C. The absorbance value at 450 nm was measured by the microplate reader (PerkinElmer Envision).\nThe kinase inhibition was detected by ADP-Glo™ Kinase Assay (Promega) using a black 384-well plate. The active CDK8 kinase was diluted in mixture (5 ng enzyme, 0.5 μg substrate, 50 μM DTT, 1 μL reaction buffer and added ddH2O to 3 μL each well) and the final ATP concentrations of was 50 μM. […] The data was collected by the microplate reader. […]\nwere broken by ultr asonic treatment and centrifuged at 12000 rpm for 20 min. The supernatant was analyzed by western blot. […]\nAfter co-treated with 2 μM biotinylated compound and compound 12 for 12 h, HCT-116 cells were lysed with NP-40 containing PMSF and centrifuged at 14000 r for 30 min at 4 °C. […] The samples were analyzed by western blot."}},
  "data": [
    {"smiles": "NC(=O)c1cccc(-c2cnc3[nH]cc(-c4ccoc4)c3c2)c1", "note": "[Compound 12, 3-(3-(furan-3-yl)-1H-pyrrolo[2,3-b]pyridin-5-yl)benzamide]", "values": [
      {"measurement": "IC50", "setting": "MV4-11", "value": "0.03 ± 0.01", "unit": "µM"},
      {"measurement": "IC50", "setting": "MDA-MB-231", "value": "> 50", "unit": "µM"},
      {"measurement": "IC50", "setting": "HCT-116", "value": "3.66 ± 1.94", "unit": "µM"},
      {"measurement": "IC50", "setting": "HT-29", "value": "8.26 ± 0.65", "unit": "µM"},
      {"measurement": "IC50", "setting": "CDK6", "value": "0.352 ± 0.0365", "unit": "µM"},
      {"measurement": "Phosphorylation of STAT1 Tyr701", "setting": "STAT1 Tyr701", "value": "not inhibited"},
      {"measurement": "IC50", "setting": "CYP 2D6", "value": "> 50", "unit": "µM"},
      {"measurement": "Competition with biotinylated compound for binding to CDK8", "setting": "CDK8", "value": "could inhibit the binding of biotinylated compound to CDK8"}
    ]}
  ]
}
